Holding throughout (format): functional, cell-based
The target in series [1] is T1, ATP-dependent translocase ABCB1 (Homo sapiens, UniProt P08183). Put plainly: TP_TRANSPORTER: inhibition of Levofloxacin transepithelial transport (basal to apical) (Levofloxacin: 100 uM, PAH: 2500 uM) in MDR1-expressing LLC-PK1 cells. The settings on record: pig, llc-pk1, 2500 µM.
Series [2] concerns the target T1, ATP-dependent translocase ABCB1. Description: TP_TRANSPORTER: inhibition of Daunorubicin transepithelial transport (basal to apical) (Daunorubicin: 0.1 uM, Levofloxacin: 3000 uM) in MDR1-expressing LLC-PK1 cells. Particulars: pig, llc-pk1, 3000 µM.
The target is the same in series [3]. Put plainly: TP_TRANSPORTER: inhibition of DU-6895a transepithelial transport (basal to apical) (DU-6895a: 100 uM, Levofloxacin: 3000 uM) in MDR1-expressing LLC-PK1 cells. The settings on record: pig, llc-pk1, 3000 µM.
In series [4] the test system is C[C@H]1COc2c(N3CCN(C)CC3)c(F)cc3c(=O)c(C(=O)O)cn1c23. Description: TP_TRANSPORTER: transepithelial transport (basal to apical) in MDR1-expressing LLC-PK1 cells.

T1 sequence (P08183 whole entry): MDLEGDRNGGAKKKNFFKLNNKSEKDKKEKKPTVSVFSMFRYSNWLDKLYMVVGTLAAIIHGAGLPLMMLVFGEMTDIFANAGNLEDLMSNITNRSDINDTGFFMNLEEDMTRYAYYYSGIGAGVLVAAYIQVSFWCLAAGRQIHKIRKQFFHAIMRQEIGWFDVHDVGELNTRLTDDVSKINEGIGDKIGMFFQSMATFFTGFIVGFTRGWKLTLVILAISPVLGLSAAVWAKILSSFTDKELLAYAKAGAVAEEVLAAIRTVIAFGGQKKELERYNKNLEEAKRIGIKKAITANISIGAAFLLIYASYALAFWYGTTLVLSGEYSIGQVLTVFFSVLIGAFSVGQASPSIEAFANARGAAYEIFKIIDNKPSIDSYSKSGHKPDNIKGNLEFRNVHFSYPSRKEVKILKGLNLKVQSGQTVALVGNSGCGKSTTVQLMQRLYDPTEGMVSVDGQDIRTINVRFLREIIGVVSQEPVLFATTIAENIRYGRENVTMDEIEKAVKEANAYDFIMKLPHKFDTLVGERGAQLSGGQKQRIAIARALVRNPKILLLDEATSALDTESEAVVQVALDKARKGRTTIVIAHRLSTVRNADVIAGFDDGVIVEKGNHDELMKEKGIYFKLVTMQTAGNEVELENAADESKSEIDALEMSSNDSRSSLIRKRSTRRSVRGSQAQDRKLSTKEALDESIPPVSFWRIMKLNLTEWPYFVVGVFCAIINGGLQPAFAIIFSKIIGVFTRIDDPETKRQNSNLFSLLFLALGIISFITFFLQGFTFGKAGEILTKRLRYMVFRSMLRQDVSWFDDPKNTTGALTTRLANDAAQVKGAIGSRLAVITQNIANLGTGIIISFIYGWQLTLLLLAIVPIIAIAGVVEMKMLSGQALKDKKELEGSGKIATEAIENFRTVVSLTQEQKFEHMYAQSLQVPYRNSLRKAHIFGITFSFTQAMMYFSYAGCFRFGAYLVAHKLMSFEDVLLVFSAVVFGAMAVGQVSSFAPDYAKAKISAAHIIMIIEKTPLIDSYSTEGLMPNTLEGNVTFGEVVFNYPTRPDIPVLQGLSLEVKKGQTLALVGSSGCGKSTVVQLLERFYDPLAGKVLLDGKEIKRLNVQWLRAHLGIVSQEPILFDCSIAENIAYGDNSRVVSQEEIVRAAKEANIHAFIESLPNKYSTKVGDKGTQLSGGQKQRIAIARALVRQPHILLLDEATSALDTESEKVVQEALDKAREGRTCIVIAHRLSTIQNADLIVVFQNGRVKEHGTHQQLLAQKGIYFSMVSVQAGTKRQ

In the case of `Nc1ccc(C(=O)NCC(=O)O)cc1` [AMINOHIPPURIC ACID], the Activity entry in series [1] was “is not an inhibitor [-]”.
As to `C[C@H]1COc2c(N3CCN(C)CC3)c(F)cc3c(=O)c(C(=O)O)cn1c23.C[C@H]1COc2c(N3CCN(C)CC3)c(F)cc3c(=O)c(C(=O)O)cn1c23.O` [LEVOFLOXACIN], the Activity result in series [2] and in series [3] was “inhibitor [+]” in each case.
Consider “ATP-dependent translocase ABCB1 (Homo sapiens)”, for which the Michaelis constant (Km) in series [4] amounted to 3 mM.

As usually defined, the Km is the concentration of substrate that gives half-maximal velocity.

These data come from ChEMBL document CHEMBL2074274, “Transport of quinolone antibacterial drugs by human P-glycoprotein expressed in a kidney epithelial cell line, LLC-PK1” (J Pharmacol Exp Ther, 1997).
